Molecules are shown by their SMILES.

For one test, the target named is T1, AtHTL (Arabidopsis thaliana, UniProt Q9SZU7).
T1 sequence (Q9SZU7 1-270): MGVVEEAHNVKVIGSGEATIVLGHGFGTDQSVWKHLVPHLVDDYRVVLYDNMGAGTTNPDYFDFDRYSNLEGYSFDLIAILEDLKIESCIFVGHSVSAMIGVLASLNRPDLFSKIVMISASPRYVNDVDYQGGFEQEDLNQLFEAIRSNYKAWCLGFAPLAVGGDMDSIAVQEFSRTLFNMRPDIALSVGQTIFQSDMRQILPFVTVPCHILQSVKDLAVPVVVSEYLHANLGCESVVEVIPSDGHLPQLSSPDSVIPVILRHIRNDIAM
The test can be described thus: ITC binding to AtHTL. As to conditions: 3 mM KAR1 into 150 μM protein, 20 °C. The protocol:
The binding assays were performed using a MicroCal iTC200 isothermal titration calorimeter (GE Healthcare). Prior to the ITC experiments, concentrated ShD14, ShHTL1, ShHTL4, and ShHTL7 were exchanged into a buffer consisting of 20 mM HEPES (pH 8.0) and 150 mM NaCl to remove dithiothreitol and were then adjusted to a final concentration of 150 μM. The sample cell was filled with protein solution (204 μL). Nineteen consecutive 2.0-μL aliquots of 3 mM KAR1 (3-methyl-2H-furo [2,3-c] pyran-2-one) were injected into a prepared protein solution at 150 s intervals at 20 °C. The first injection volume was 0.4 μL, and the observed thermal peak was excluded from the data analysis. A negative control was obtained by titrating 3 mM KAR1 into the buffer (20 mM HEPES, pH 8.0, 150 mM NaCl) in the same manner. Data fitting was performed in “one set of sites” mode, and KD values were calculated using Origin software provided by MicroCal.
Supplementary Figure 3. Binding analyses of ShHTLs and ShD14 with KAR1. The ITC
assays were performed by adding 3 mM KAR1 to 150 μM ShHTL1 (a), ShHTL4 (b), ShHTL7
(c), ShD14 (d) and AtHTL (e).
ShHTL1 and AtHTL were fitted using the MicroCal origin software with the “one binding site”
model. The ITC assays titrating KAR1 into ShHTL1 and AtHTL were repeated three times
independently (data not shown).

The target in the next test is ShHTL7 T190F/C194F (Striga hermonthica, UniProt A0A0M3PNA2, C194F/T190F). The test can be described thus: ITC binding to ShHTL7 double mutation. As to conditions: 3 mM KAR1 into 150 μM mutant. As to the method:
(§1) Supplementary Figure 8. Activity measurements of ShHTL7 mutants. (a-b), Binding analyses of the T190F/C194F double mutation (a) and L124F/T190F/C194F triple mutation (b) of ShHTL7 with KAR1 by ITC (shown in black). The ITC assays were performed by adding 3 mM KAR1 to 150 μM ShHTL7 mutants in the same manner as in Supplementary Figure 3. Results of titrating buffer to 150 μM ShHTL7 mutants are shown in red. The upper panel for each […]
(§2) injection (black squares). (c) YLG hydrolytic activity of ShHTL7 and its mutants. As described

For another test, the target named is ShHTL7 L124F/T190F/C194F (Striga hermonthica, UniProt A0A0M3PNA2, C194F/L124F/T190F). The test can be described thus: ITC binding to ShHTL7 triple mutation. As to conditions: 3 mM KAR1 into 150 μM mutant. As to the method:
as §1, §2

Test [1] has as its system ShHTL1–ShMAX2 interaction. Description: In vitro pull-down ShHTL1-ShMAX2. It counts as binding, Striga hermonthica. As to conditions: 50 μM ligand. The protocol:
Ni-NTA pull-down assays were performed with purified ShMAX2 or AtMAX2 as the bait and […]14, or GST-AtD14 as the prey. The molecular weight of the HTL/D14 proteins is nearly the same as that of ASK1; therefore, the HTL/D14 proteins were fused to GST, increasing their molecular weight for detection on SDS-PAGE gels. […] The protein complexes were then eluted with 100 μL of elution buffer containing 50 mM Bis-Tris, pH 6.8, 500 mM NaCl, and 500 mM imidazole and subjected to SDS-PAGE analysis. Samples of […] […] also subjected to western blotting after separation by SDS-PAGE. The proteins were transferred from the SDS-PAGE gel to a polyvinylidene fluoride (PVDF) membrane (Merck Millipore). […] Next, the membrane was incubated with anti-GST antibody as the primary antibody (71097-3; Novagen; diluted 1:10,000) at 25 °C for 1.5 h and then washed 3 times with TBST buffer. Anti-mouse antibody (32430; Thermo Scientific; diluted 1:4000) conjugated to horseradish peroxidase was used as the secondary antibody. After incubation with the secondary antibody at 25 °C for 1.5 h, the membrane was washed 3 times. For detection, SuperSignal West Femto Maximum Sensitivity Substrate (Thermo Scientific) was used as the chemiluminescence substrate and ImageQuant LAS 4000 mini (GE Healthcare) was used for imaging.

Sequence of ShHTL7 L124F/T190F/C194F (A0A0M3PNA2 whole entry L124F/T190F/C194F): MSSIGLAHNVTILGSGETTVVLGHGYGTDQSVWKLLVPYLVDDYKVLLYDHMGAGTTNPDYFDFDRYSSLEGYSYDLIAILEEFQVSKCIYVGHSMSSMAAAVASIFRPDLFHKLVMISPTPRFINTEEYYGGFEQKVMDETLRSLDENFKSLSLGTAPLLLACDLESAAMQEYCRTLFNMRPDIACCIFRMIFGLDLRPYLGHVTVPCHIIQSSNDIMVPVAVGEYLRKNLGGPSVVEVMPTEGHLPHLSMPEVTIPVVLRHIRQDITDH
Sequence of ShHTL7 T190F/C194F (A0A0M3PNA2 whole entry T190F/C194F): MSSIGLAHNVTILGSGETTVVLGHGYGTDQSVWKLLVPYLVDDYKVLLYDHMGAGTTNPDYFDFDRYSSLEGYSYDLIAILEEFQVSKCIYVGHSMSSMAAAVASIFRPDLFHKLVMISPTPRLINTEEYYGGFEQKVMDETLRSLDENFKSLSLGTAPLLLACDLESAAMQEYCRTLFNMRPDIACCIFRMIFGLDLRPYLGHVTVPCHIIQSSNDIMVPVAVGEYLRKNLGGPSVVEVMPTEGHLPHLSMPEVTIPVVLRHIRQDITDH

Broadly, the Kd is the concentration at which binding is half-saturated. A low value points to higher affinity. Consider `Cc1c2ccocc-2oc1=O` [KAR1, 3-methyl-2H-furo [2,3-c] pyran-2-one], for which binding on AtHTL was characterised by a dissociation constant (Kd) of 129 ± 17 µM. In addition, on ShHTL7 T190F/C194F, the “KAR1 binding by ShHTL7 T190F/C194F” value was “able to bind to KAR1 weakly”. Also, on ShHTL7 L124F/T190F/C194F, the “KAR1 binding by ShHTL7 L124F/T190F/C194F” value is given as “able to bind to KAR1 weakly”. Further, the “ShHTL1-ShMAX2 interaction in the presence of ligand” value in test [1] is given as “no direct interaction with ShMAX2 in the presence of KAR1”.
